Source: US11738088B2, “Boryl ethers, carbonates, and cyclic acetals as oxidatively-triggered drug delivery vehicles” (University of Pittsburgh—Of the Commonwealth System of …, priority 2016, dated 2023)

What was measured:
[1] = Oxidative breakdown with urea.H2O2 monitored by 1H NMR; format: physicochemical; conditions: urea.H2O2 300 mM
[2] = as above; format: physicochemical; conditions: for yield of released product (1H NMR vs internal standard) / half-life: 6-12 equiv H2O2.urea, pH 8.0, CD3CN:D2O 5:1, rt; for half-life: H2O2.urea (6-12 equiv) in CD3CN:D2O 5:1, read-out: t1/2 (substrate consumption); for oxidative breakdown / cargo release (in words): in the presence of H2O2
Protocol: The oxidative breakdown of compounds 7 and 8 was achieved by subjecting them (˜25 mM) to urea.H2O2 (300 mM) in a mixture of CD3CN and aqueous (D2O) buffer (pH=8.0). The buffer was selected to mimic the experimentally determined pH of mitochondria in consideration of potential applications to mitigating neuronal oxidative stress. Initial experiments were conducted in a 5:1 ratio of CD3CN and buffer (Scheme 3). Reaction progress was monitored by ^1H NMR through following the disappearance of the signals for diastereotopic hydrogens from the methylene group in the starting materials and the appearance of the corresponding enantiotopic hydrogens in butanone. Conversions were calculated by comparison to the internal standard 1,2-dimethoxyethane.

[3] = ~25 mM substrate, urea.H2O2 300 mM, CD3CN:buffer 5:1, pH 8.0

| yield of released product (1H NMR vs internal standard) [2] [%] | half-life [2] [min] | oxidative breakdown / cargo release (in words) [2] | SMILES | further results |
| --- | --- | --- | --- | --- |
|  |  |  | CCC(C)(OCOC)B1OC(C)(C)C(C)(C)O1 (centres unmarked) [Compound 7] | NMR yield of butanone ([1]; CD3CN:buffer 1:1): 84%; NMR yield of butanone ([1]; pH 7.2): 81%; NMR yield of butanone ([2]; urea.H2O2 300 mM, CD3CN:buffer 5:1, pH 8.0): 79%; time for consumption of 50% of the starting material [2, 3]: less than 2 min |
|  |  |  | CCC(C)(OC(=O)Oc1ccccc1)B1OC(C)(C)C(C)(C)O1 (centres unmarked) [Compound 8] | time for consumption of 50% of the starting material ([1]; CD3CN:buffer 1:1): ≤ 12 min; yield of the desired products ([1]; CD3CN:buffer 1:1): 84%; yield of the desired products ([2]; urea.H2O2 300 mM, CD3CN:buffer 5:1): 84%; time for consumption of 50% of the starting material [2, 3]: 22 min |
| 84 | < 2 | released smoothly | CCC(C)(OCOC1CCCCC1)B1OC(C)(C)C(C)(C)O1 (centres unmarked) [Compound 11] |  |
| 85 | < 2 | released smoothly | CCC(C)(OCO[C@@H]1C[C@H](C)CC[C@H]1C(C)C)B1OC(C)(C)C(C)(C)O1 (some centres unmarked) [Compound 13] |  |
| 89 | < 2 |  | CCC(C)(OCC(C)C)B1OC(C)(C)C(C)(C)O1 (centres unmarked) [Compound 17] |  |
| 83 | < 2 |  | CC(C)C(OC1CCCCC1)B1OC(C)(C)C(C)(C)O1 (centres unmarked) [Compound 19] |  |
| 16 | > 936 |  | CCC(C)(OC(=O)c1ccccc1)B1OC(C)(C)C(C)(C)O1 (centres unmarked) [Compound 22] |  |
|  |  |  | COc1ccc([C@H]2OCC[C@](C)(B3OC(C)(C)C(C)(C)O3)O2)cc1 [Compound 28] | time for consumption of 50% of the starting material ([2]; H2O2, pH 8.0): ≤ 1.5 min; time to complete conversion ([2]; H2O2, pH 8.0): < 15 min; yield of anisaldehyde and 1-hydroxy-3-butanone ([2]; H2O2, pH 8.0): 94% |
|  |  | quickly and efficiently | CC1(B2OC(C)(C)C(C)(C)O2)CCOC(c2ccccc2)(c2ccccc2)O1 (centres unmarked) [Compound 29] |  |

| SMILES | yield of released product (1H NMR vs internal standard) [2] [%] | half-life [2] [min] | oxidative breakdown / cargo release (in words) [2] | further results |
| --- | --- | --- | --- | --- |
| CCOC(C)(CCc1ccc(O[Si](C)(C)C(C)(C)C)cc1)B1OC(C)(C)C(C)(C)O1 (centres unmarked) [Compound 15] | 89 | < 2 |  |  |
| Cc1c(C)c2c(c(C)c1OC(=O)OC(C)(CCO[Si](C)(C)C(C)(C)C)B1OC(C)(C)C(C)(C)O1)CCC(C)(C)O2 (centres unmarked) [Compound 20] | 79 | 90 | somewhat slow |  |
